# Where two headings read alike, the source gives them in different places.
# Tested on: parasite
# Experiment: Parasite LDH growth assay (Parasite Assay), antiparasite potency
# Type: cell-based
# Conditions: parasite LDH growth assay, ring stage parasites, 72 hours incubation at 37° C., read-out: EC50
# Procedure: Assessing Antiparasite Potency in a Parasite LDH Growth Assay (Parasite Assay)
# The parasite stock was maintained at 4% haematocrit in RPMI-Hepes media buffered with sodium bicarbonate and supplemented with 5% heat inactivated human serum and 0.5% albumax.
# On the day of assay set up, a blood smear of the parasite culture was Giemsa stained and counted. The parasitemia was adjusted to 0.7% rings and the haematocrit was diluted to 2% in RPMI-Hepes media buffered with sodium bicarbonate and supplemented with 5% heat inactivated human serum and 0.5% albumax. 30 ul of diluted parasites are then added into 10 ul of media+compound in pre-prepared Greiner TC assay plates. Parasite assay plates were placed in gassed humidified boxes in single layer and allowed to incubate at 37° C. for 72 hours. After 72 hours growth, assay plates are sealed with parafilm and frozen flat, in single file at −80° C. overnight. On the following day, assay plates are allowed to thaw at room temperature for 4 hours to which an LDH assay is performed to measure parasite growth.
Compound,EC50 (72 h) [pM],EC50 [pM]
"CC(C)[C@]1(C)CC(=O)N([C@@H]2CCOc3ccc(C(=O)NC4c5ccccc5OC(C)(C)C4O)cc32)C(=N)N1 (single isomer, unassigned) [Example 11A]",900,
"CCC1C[C@@H](N2C(=N)NC(CC)(CC)CC2=O)c2cc(C(=O)NC3c4ccccc4OC(C)(C)C3O)ccc2O1 (single isomer, unassigned) [Example 13A]",800,
"CCC1C[C@@H](N2C(=N)NC(CC)(CC)CC2=O)c2cc(C(=O)NC3c4ccccc4OC(C)(C)C3O)ccc2O1 (single isomer, unassigned) [Example 13B]",54000,
"CCC1(CC)CC(=O)N(C2c3cc(C(=O)N[C@@H]4c5ccccc5OC(C)(C)[C@H]4O)ccc3CC2OC)C(=N)N1 (single isomer, unassigned) [Example 251A]",,400
"CCC1(CC)CC(=O)N([C@@H]2CCOc3ccc(C(=O)NC4c5cc(F)ccc5C[C@H]4O)cc32)C(=N)N1 (stereo in doubt) [Example 148, (4R)-4-(4,4-diethyl-2-imino-6-oxo-hexahydropyrimidin-1-yl)-N-[(1R,2R)-6-fluoro-2-hydroxy-indan-1-yl]chromane-6-carboxamide]",2700,
"CCC1(CC)CC(=O)N(C2CCOc3ccc(C(=O)N[C@@H]4c5ccccc5OC(C)(C)[C@H]4O)cc32)C(=N)N1 (stereo partly drawn) [Example 2A, 4-(4,4-diethyl-2-imino-6-oxotetrahydropyrimidin-1(2H)-yl)-N-((3S,4R)-3-hydroxy-2,2-dimethylchroman-4-yl)chroman-6-carboxamide]",500,
"CCC1(CC)CC(=O)N([C@@H]2CCOc3ccc(C(=O)N[C@H]4CC(C)(C)Oc5ccc(F)cc54)cc32)C(=N)N1 [Example 7A, (R)-4-(4,4-diethyl-2-imino-6-oxotetrahydropyrimidin-1(2H)-yl)-N-((S)-6-fluoro-2,2-dimethylchroman-4-yl)chromane-6-carboxamide]",400,
"CCC1(CC)CC(=O)N([C@@H]2CCOc3ccc(C(=O)NC4c5ccccc5OCC4O)cc32)C(=N)N1 (stereo partly drawn) [Example 8A, (4R)-4-(4,4-diethyl-2-imino-6-oxotetrahydropyrimidin-1(2H)-yl)-N-(3-hydroxychroman-4-yl)chromane-6-carboxamide]",,10000
"CCC1C[C@@H](N2C(=N)NC(CC)(CC)CC2=O)c2cc(C(=O)N[C@@H]3c4ccccc4C[C@H]3O)ccc2O1 (stereo partly drawn) [Example 9A, (4R)-4-(4,4-diethyl-2-imino-6-oxotetrahydropyrimidin-1(2H)-yl)-2-ethyl-N-((1R,2R)-2-hydroxy-2,3-dihydro-1H-inden-1-yl)chromane-6-carboxamide]",,900
"CC(C)[C@]1(C)CC(=O)N([C@@H]2CCOc3ccc(C(=O)N[C@H]4CC(C)(C)Oc5ccccc54)cc32)C(=N)N1 [Example 10A, (R)-N-((S)-2,2-dimethylchroman-4-yl)-4-((S)-2-imino-4-isopropyl-4-methyl-6-oxotetrahydropyrimidin-1(2H)-yl)chromane-6-carboxamide]",500,
"CCC1(CC)CC(=O)N([C@@H]2CCOc3ccc(C(=O)N[C@H]4CC(C)(C)Oc5ccc(Br)cc54)cc32)C(=N)N1 [Example 14A, (R)-N-((S)-6-bromo-2,2-dimethylchroman-4-yl)-4-(4,4-diethyl-2-imino-6-oxotetrahydropyrimidin-1(2H)-yl)chromane-6-carboxamide]",1000,
"CCC1(CC)CC(=O)N([C@@H]2CCOc3ccc(C(=O)N[C@@H]4c5cc(Br)ccc5OC(C)(C)[C@H]4O)cc32)C(=N)N1 [Example 15A, (R)-N-((3S,4R)-6-bromo-3-hydroxy-2,2-dimethylchroman-4-yl)-4-(4,4-diethyl-2-imino-6-oxotetrahydropyrimidin-1(2H)-yl)chromane-6-carboxamide]",300,
"CCC1(CC)CC(=O)N([C@@H]2CC(COC)Oc3ccc(C(=O)N[C@H]4CC(C)(C)Oc5ccccc54)cc32)C(=N)N1 (stereo partly drawn) [Example 16A, (4R)-4-(4,4-diethyl-2-imino-6-oxotetrahydropyrimidin-1(2H)-yl)-N-((S)-2,2-dimethylchroman-4-yl)-2-(methoxymethyl)chromane-6-carboxamide]",,600
"CCC1(CC)CC(=O)N([C@@H]2CC(COC)Oc3ccc(C(=O)N[C@@H]4c5ccccc5OC(C)(C)[C@H]4O)cc32)C(=N)N1 (stereo partly drawn) [Example 18A, (4R)-4-(4,4-diethyl-2-imino-6-oxotetrahydropyrimidin-1(2H)-yl)-N-((3S,4R)-3-hydroxy-2,2-dimethylchroman-4-yl)-2-(methoxymethyl)chromane-6-carboxamide]",800,
"CCC1(CC)CC(=O)N([C@@H]2CCOc3ccc(C(=O)N[C@@H]4c5cc(Cl)ccc5OC(C)(C)[C@H]4O)cc32)C(=N)N1 [Example 19A, (R)-N-((3S,4R)-6-chloro-3-hydroxy-2,2-dimethylchroman-4-yl)-4-(4,4-diethyl-2-imino-6-oxotetrahydropyrimidin-1(2H)-yl)chromane-6-carboxamide]",300,
"CCC1(CC)CC(=O)N([C@@H]2CCOc3ccc(C(=O)N[C@@H]4c5cc(C#N)ccc5OC(C)(C)[C@H]4O)cc32)C(=N)N1 [Example 20A, (R)-N-((3S,4R)-6-cyano-3-hydroxy-2,2-dimethylchroman-4-yl)-4-(4,4-diethyl-2-imino-6-oxotetrahydropyrimidin-1(2H)-yl)chromane-6-carboxamide]",800,
"CCC1(CC)CC(=O)N([C@@H]2CCOc3ccc(C(=O)N[C@H]4CC(C)(C)Oc5ccc(C#N)cc54)cc32)C(=N)N1 [Example 21A, (R)-N-((S)-6-cyano-2,2-dimethylchroman-4-yl)-4-(4,4-diethyl-2-imino-6-oxotetrahydropyrimidin-1(2H)-yl)chromane-6-carboxamide]",800,
"CCC1(CC)CC(=O)N([C@@H]2CC3(COC3)Oc3ccc(C(=O)N[C@H]4CC(C)(C)Oc5ccccc54)cc32)C(=N)N1 [Example 22A, (R)-4-(4,4-diethyl-2-imino-6-oxotetrahydropyrimidin-1(2H)-yl)-N-((S)-2,2-dimethylchroman-4-yl)spiro[chromane-2,3′-oxetane]-6-carboxamide]",700,
"CCC1(CC)CC(=O)N([C@@H]2CC3(COC3)Oc3ccc(C(=O)N[C@@H]4c5ccccc5C[C@H]4O)cc32)C(=N)N1 [Example 23A, (R)-4-(4,4-diethyl-2-imino-6-oxotetrahydropyrimidin-1(2H)-yl)-N-((1R,2R)-2-hydroxy-2,3-dihydro-1H-inden-1-yl)spiro[chromane-2,3′-oxetane]-6-carboxamide]",5000,
"CCC1(CC)CC(=O)N([C@@H]2CCOc3ccc(C(=O)N[C@@H]4c5cc(F)ccc5OC(C)(C)[C@H]4O)cc32)C(=N)N1 [Example 25A, (R)-4-(4,4-diethyl-2-imino-6-oxotetrahydropyrimidin-1(2H)-yl)-N-((3S,4R)-6-fluoro-3-hydroxy-2,2-dimethylchroman-4-yl)chromane-6-carboxamide]",500,
"CCC1(CC)CC(=O)N([C@@H]2CCOc3c(Cl)cc(C(=O)N[C@@H]4c5ccccc5OC(C)(C)[C@H]4O)cc32)C(=N)N1 [Example 29A, (R)-8-chloro-4-(4,4-diethyl-2-imino-6-oxotetrahydropyrimidin-1(2H)-yl)-N-((3S,4R)-3-hydroxy-2,2-dimethylchroman-4-yl)chromane-6-carboxamide]",1000,
"CCC1(CC)CC(=O)N([C@@H]2CCOc3ccc(C(=O)N[C@@H]4c5ccccc5OC(C)(C)[C@H]4O)nc32)C(=N)N1 [Example 30A, (R)-4-(4,4-diethyl-2-imino-6-oxotetrahydropyrimidin-1(2H)-yl)-N-((3S,4R)-3-hydroxy-2,2-dimethylchroman-4-yl)-3,4-dihydro-2H-pyrano[3,2-b]pyridine-6-carboxamide]",800,
"CCC1(CC)CC(=O)N([C@@H]2CCOc3ccc(C(=O)N[C@H]4CC(C)(C)Oc5ccccc54)nc32)C(=N)N1 [Example 31B, (R)-4-(4,4-diethyl-2-imino-6-oxotetrahydropyrimidin-1(2H)-yl)-N-((S)-2,2-dimethylchroman-4-yl)-3,4-dihydro-2H-pyrano[3,2-b]pyridine-6-carboxamide]",1000,
"CCC1(CC)CC(=O)N([C@@H]2CC(C)(C)Oc3ccc(C(=O)N[C@@H]4c5ccccc5CC4(C)O)cc32)C(=N)N1 (stereo partly drawn) [Example 42A, (4R)-4-(4,4-diethyl-2-imino-6-oxotetrahydropyrimidin-1(2H)-yl)-N-((1R)-2-hydroxy-2-methyl-2,3-dihydro-1H-inden-1-yl)-2,2-dimethylchromane-6-carboxamide]",,1000
"CCC1(CC)CC(=O)N([C@@H]2CC(C)(C)Oc3ccc(C(=O)N[C@@H]4c5cc(F)ccc5OC(C)(C)[C@H]4O)cc32)C(=N)N1 [Example 53A, (R)-4-(4,4-diethyl-2-imino-6-oxotetrahydropyrimidin-1(2H)-yl)-N-((3S,4R)-6-fluoro-3-hydroxy-2,2-dimethylchroman-4-yl)-2,2-dimethylchromane-6-carboxamide]",,300
"CCC1(CC)CC(=O)N([C@@H]2CCOc3ccc(C(=O)NC4c5ccccc5OC4(C)COC)cc32)C(=N)N1 (stereo partly drawn) [Example 64B, (4R)-4-(4,4-diethyl-2-imino-6-oxotetrahydropyrimidin-1(2H)-yl)-N-(2-(methoxymethyl)-2-methyl-2,3-dihydrobenzofuran-3-yl)chromane-6-carboxamide]",,900
"CCC1(CC)CC(=O)N([C@H]2c3cc(C(=O)N[C@@H]4c5ccccc5OC(C)(C)[C@H]4O)ccc3OCC2OC)C(=N)N1 (stereo partly drawn) [Example 67B, (3R,4S)-4-(4,4-diethyl-2-imino-6-oxotetrahydropyrimidin-1(2H)-yl)-N-((3S,4R)-3-hydroxy-2,2-dimethylchroman-4-yl)-3-methoxychromane-6-carboxamide]",,800

# — patent US20230355622A1, “METHODS OF CHEMOVACCINATION AGAINST PLASMODIUM INFECTIONS” (Merck Sharp & Dohme LLC, priority 2020, published 2023)
